Tests used:
insect populations = tested on: insect populations
Description: (§1) Long and 25 ft. Wide, was filled with various species of household plants, of which most had infestations of some type of insect pest. (Table 2) All other treatments were stopped two weeks prior to treatment with the solution of the present invention. Yellow sticky cards were placed throughout the greenhouse for three days prior to treatment and then were counted for the various species of insects present. The greenhouse was then treated with 12 gallons of a 1:50 dilution of the solution of the present invention using a Dram™ hydraulic sprayer. The house was sprayed on three day intervals for a period of three weeks. Sticky cards were placed in selected areas through out the greenhouse during the three week period.

THRIPS = tested on: THRIPS
Description: as §1

[1] = tested on: various species of household plants; settings: throughout the three week treatment period, most plants in bloom
Description: as §1

[2] = tested on: black mold growing on the excrement of the aphids; settings: leaves of New Guinea Impatiens
Botrytis cinerea = settings: 0.05% Hydrogen Peroxide mist during entire propagation; one mature leaf from each of 10 cuttings, averaged
Description: In this study 500 zonal geranium cuttings were treated with a mist during the entire course of their propagation. One mature leaf from each of 10 terminal stem cuttings following treatment were sampled and the data was averaged.

living plants = settings: dilute solution
[3] = tested on: Botrytis and Black Spot Mold; settings: flowers wetted with dilute solution before wrapping
Description: In the cut flower industry, the moist flowers are wrapped in plastic prior to placement in the shipping boxes for transit. Ice is added to the boxes in many cases to help keep the flowers fresh during transit. This closed, moist environment is very conducive to Botrytis and Black Spot Mold.

plant pathogens = settings: dilute solution
[4] = tested on: root rot and other infectious pathogens; settings: cuttings dipped in 0.5% hydrogen peroxide, dilute solution in misting system
[5] = tested on: mealy bug, white fly, aphids, spider mites, and thrip
Description: (§2) To insure objectivity, the greenhouses selected were not all commonly owned and many varieties of roses were included in the testing. […] The effectiveness of the spray was measured by microbial culture of the surfaces of the greenhouse and the leaf surfaces of the treated and untreated plants. […] It is well known that these fungi are airborne.

Roses = settings: after six weeks of observation
Description: as §2

[6] = tested on: total mold count, including Botrytis and those molds causing Powdery Mildew
Description: as §2

fungus gnats = settings: greenhouse treatment; probably due to removal of food source
Description: as §2

What does the source list for OO [hydrogen peroxide]?
reduction of insect populations (insect populations; 10 days and post 5 treatments): marked reduction of insect populations; reduction in insect populations (insect populations; after one treatment, 72 hr card exposure): did not indicate any significant reduction; reduction of Thrips (THRIPS; 10 days and post 5 treatments, seven day card exposure): greatly reduced; average Thrips present per card (THRIPS; after subsequent treatments, 72 hour exposure time): 7-10; phytotoxicity or other detrimental effect to the plants [1]: no evidence of phytotoxicity; effect on black mold [2]: quickly neutralized the mold; MICRO-ORGANISMS/LEAF (Botrytis cinerea): 38; adverse effects on the plants (living plants): no adverse affects; appearance of detrimental fungi [3]: prevented and or delayed the appearance of the detrimental fungi; plant pathogens present on the surfaces (plant pathogens): either totally eradicated or substantially reduced; cutting loss [4]: virtually eliminated cutting loss; effect upon insect pests present in the greenhouse ([5]; field trials): lethal effect; effect on larval stages of insect pests ([5]; greenhouse treatment of the preceding example): destruction of the larval stages; adverse effects upon the plants (Roses): No adverse effects; total mold count ([6]; 1 % solution sprayed at least four times): killed or seriously reduced the total mold count; treated plants and surfaces free of total fungi (microbial culture) ([6]; after the first application of 1 % hydrogen peroxide): ~100%; recontamination by fungi (microbial culture) ([6]; daily applications of 500 PPM over several weeks): no recontamination by fungi occurred; effect on fungus gnats (fungus gnats): eliminated
